The target of this assay is HiBit-WIZ fusion protein (Homo sapiens, UniProt O95785+Q96SW2). Put plainly: Quantification of WIZ protein levels in HiBit tag fusion protein assay (WIZ HiBit assay in 293T cells). Type of assay: cell-based. Particulars: for Dmax / remaining activity at up to 25 µM: HEK-293T, 293T cells; for Dmax: 100 minus Amax, read-out: % degradation of WIZ (100-Amax); for remaining activity at up to 25 µM: DMSO-normalized, curve-fitted percentage of WIZ-HiBit remaining at 25 uM, read-out: WIZ Amax; for DC50: WIZ HiBit assay in 293T cells, 10-point, 5-fold dose response, highest concentration 25 μM, about 18 hours, read-out: WIZ AC50. More on the design: Dmax: dose or concentration left out as unconfirmed. (The HiBiT peptide binds its large partner to form an active luciferase.)
HiBit-WIZ fusion protein, sequence (O95785 whole entry, the tested form may be a part): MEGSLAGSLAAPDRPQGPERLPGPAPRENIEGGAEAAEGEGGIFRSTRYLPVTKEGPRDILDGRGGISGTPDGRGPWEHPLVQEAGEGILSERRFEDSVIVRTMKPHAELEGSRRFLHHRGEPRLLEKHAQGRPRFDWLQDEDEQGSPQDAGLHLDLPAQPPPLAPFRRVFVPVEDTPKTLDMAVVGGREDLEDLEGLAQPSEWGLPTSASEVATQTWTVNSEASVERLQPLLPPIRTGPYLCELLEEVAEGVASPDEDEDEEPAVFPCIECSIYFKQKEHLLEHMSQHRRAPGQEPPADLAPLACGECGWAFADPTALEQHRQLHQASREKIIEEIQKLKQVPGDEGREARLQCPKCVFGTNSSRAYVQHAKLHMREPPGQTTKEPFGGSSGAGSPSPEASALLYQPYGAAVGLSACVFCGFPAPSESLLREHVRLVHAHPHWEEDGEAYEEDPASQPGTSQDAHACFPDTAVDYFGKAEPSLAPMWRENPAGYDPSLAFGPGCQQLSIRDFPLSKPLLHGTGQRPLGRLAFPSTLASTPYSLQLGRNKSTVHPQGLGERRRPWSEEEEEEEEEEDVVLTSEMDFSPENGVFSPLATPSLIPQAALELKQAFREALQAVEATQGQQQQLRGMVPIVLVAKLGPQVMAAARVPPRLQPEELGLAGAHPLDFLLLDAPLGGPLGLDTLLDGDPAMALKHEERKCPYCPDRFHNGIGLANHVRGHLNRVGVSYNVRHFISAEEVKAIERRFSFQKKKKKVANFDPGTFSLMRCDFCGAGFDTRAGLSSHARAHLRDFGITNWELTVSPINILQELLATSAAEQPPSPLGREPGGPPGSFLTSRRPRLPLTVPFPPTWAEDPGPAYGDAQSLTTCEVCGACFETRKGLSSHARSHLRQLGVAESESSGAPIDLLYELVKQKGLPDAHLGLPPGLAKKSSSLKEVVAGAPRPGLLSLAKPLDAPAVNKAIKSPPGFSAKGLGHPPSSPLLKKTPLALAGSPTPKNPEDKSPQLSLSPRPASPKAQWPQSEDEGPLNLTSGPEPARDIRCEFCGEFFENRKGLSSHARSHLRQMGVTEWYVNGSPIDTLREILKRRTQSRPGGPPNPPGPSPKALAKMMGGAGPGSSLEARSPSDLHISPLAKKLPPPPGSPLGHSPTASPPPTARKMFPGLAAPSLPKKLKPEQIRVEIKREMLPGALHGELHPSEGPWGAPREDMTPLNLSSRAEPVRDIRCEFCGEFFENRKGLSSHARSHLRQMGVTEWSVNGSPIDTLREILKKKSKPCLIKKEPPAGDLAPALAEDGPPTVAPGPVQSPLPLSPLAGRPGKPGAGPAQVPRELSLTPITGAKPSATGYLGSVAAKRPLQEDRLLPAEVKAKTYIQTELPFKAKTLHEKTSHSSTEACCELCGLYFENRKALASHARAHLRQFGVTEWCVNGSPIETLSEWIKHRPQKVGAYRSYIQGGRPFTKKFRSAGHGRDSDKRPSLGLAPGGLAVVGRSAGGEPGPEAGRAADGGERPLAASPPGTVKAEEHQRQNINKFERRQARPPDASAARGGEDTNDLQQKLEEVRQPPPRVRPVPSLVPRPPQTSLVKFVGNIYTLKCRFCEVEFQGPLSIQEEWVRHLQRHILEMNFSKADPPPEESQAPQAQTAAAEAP
HiBit-WIZ fusion protein, sequence (Q96SW2 whole entry, the tested form may be a part): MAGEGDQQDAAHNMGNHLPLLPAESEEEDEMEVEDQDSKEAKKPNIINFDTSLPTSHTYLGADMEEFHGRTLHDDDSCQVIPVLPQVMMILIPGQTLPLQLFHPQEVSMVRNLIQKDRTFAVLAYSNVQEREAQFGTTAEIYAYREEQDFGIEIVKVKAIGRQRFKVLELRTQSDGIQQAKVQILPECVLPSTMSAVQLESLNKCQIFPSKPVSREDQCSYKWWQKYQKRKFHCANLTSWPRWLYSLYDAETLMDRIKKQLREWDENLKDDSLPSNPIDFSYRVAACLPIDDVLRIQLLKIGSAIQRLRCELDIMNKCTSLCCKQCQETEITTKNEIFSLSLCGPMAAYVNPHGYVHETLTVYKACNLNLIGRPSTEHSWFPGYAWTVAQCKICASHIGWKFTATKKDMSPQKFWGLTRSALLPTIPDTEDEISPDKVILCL
HiBit-WIZ fusion protein, sequence (Q16531 whole entry partner, the tested form may be a part): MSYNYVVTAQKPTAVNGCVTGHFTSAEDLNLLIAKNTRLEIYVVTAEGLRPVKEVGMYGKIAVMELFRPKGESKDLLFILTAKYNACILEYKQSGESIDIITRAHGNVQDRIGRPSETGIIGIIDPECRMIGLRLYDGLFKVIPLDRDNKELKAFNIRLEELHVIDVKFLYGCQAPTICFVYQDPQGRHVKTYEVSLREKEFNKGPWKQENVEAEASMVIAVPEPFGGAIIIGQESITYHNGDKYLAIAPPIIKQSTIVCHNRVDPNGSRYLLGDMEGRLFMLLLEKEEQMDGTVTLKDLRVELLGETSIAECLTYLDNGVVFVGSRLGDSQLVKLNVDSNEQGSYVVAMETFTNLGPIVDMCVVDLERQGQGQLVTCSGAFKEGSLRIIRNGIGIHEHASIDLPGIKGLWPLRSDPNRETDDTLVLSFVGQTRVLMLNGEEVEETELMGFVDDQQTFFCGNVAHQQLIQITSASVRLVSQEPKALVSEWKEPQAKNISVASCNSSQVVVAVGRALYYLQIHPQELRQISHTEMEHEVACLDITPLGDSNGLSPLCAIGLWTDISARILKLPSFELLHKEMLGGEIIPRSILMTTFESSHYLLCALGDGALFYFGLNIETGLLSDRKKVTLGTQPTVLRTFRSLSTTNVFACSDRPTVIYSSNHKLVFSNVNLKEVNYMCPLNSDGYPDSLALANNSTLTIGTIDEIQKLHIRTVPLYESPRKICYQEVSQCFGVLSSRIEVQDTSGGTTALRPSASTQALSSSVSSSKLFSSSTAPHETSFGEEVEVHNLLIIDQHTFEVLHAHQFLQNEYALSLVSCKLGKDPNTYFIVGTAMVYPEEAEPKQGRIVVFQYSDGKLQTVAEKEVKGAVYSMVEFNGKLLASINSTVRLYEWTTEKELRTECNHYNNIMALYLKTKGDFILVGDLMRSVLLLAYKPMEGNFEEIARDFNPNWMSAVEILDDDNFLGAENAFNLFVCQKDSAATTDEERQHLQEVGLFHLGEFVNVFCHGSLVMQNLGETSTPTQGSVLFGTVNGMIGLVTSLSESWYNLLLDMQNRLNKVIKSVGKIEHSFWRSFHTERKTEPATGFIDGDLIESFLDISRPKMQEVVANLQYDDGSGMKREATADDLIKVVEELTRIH

Regarding `CCN(CC)CC(=O)N1CCCC[C@H]1COc1ccc2c(c1)CN(C1CCC(=O)NC1=O)C2=O` (stereo partly drawn) [Compound I-72cp], the Dmax came to 12.1%, the remaining activity at up to 25 µM came to 87.9% and the DC50 is > 25 µM.

Consider `COc1cccc2c(C(=O)N3CCCC[C@H]3COc3ccc4c(c3)CN(C3CCC(=O)NC3=O)C4=O)c[nH]c12` (stereo partly drawn) [Compound I-72cq], for which the Dmax came out at 31.1%, the remaining activity at up to 25 µM turned out to be 68.9% and the DC50 is > 25 µM.

Turning to `O=C1CCC(N2Cc3cc(OC[C@@H]4CCCCN4C(=O)[C@H]4CCN(Cc5ccccc5)C4)ccc3C2=O)C(=O)N1` (stereo partly drawn) [Compound I-72cy], the Dmax turned out to be 15.2%, the remaining activity at up to 25 µM was 84.8% and the DC50 is > 25 µM.

Take `COc1ccc(C(=O)N2CCCC[C@H]2COc2ccc3c(c2)CN(C2CCC(=O)NC2=O)C3=O)cc1OCc1ccccc1` (stereo partly drawn) [Compound I-72d]: the Dmax came to 71.6%, the remaining activity at up to 25 µM worked out at 28.4% and the DC50 was found to be 1.9 µM.

As to `CN1CCCC1C(=O)N1CCCC[C@@H]1COc1ccc2c(c1)CN(C1CCC(=O)NC1=O)C2=O` (stereo partly drawn) [Compound I-72dd], the Dmax was found to be 19.5%, the remaining activity at up to 25 µM came to 80.5% and the DC50 was > 25 µM.

With `CC(C)n1cc(C(=O)N2CCCC[C@H]2COc2ccc3c(c2)CN(C2CCC(=O)NC2=O)C3=O)cn1` (stereo partly drawn) [Compound I-72dg], the Dmax stood at 21.1%, the remaining activity at up to 25 µM stood at 78.9% and the DC50 is > 25 µM.

In the case of `O=C1CCC(N2Cc3cc(OC[C@@H]4CCCCN4C(=O)C=C4CCCCC4)ccc3C2=O)C(=O)N1` (stereo partly drawn) [Compound I-72dm], the Dmax worked out at 11.5%, the remaining activity at up to 25 µM came out at 88.5% and the DC50 is > 25 µM.

On to `C[C@H]1CC[C@H](CC(=O)N2CCCC[C@H]2COc2ccc3c(c2)CN(C2CCC(=O)NC2=O)C3=O)CC1` (stereo partly drawn) [Compound I-72do], for which the Dmax turned out to be 23.3%, the remaining activity at up to 25 µM was 76.7% and the DC50 is > 25 µM.

Regarding `CC(C)c1cc(C(=O)N2CCCC[C@H]2COc2ccc3c(c2)CN(C2CCC(=O)NC2=O)C3=O)on1` (stereo partly drawn) [Compound I-72dp], the Dmax stood at 30.5%, the remaining activity at up to 25 µM was 69.5% and the DC50 is > 25 µM.

Consider `O=C1CCC(N2Cc3cc(OC[C@@H]4CCCCN4C(=O)c4ncn(-c5ccccc5)n4)ccc3C2=O)C(=O)N1` (stereo partly drawn) [Compound I-72dt], for which the Dmax is 47.2%, the remaining activity at up to 25 µM was 52.8% and the DC50 was > 25 µM.

Regarding `O=C1CCC(N2Cc3cc(OC[C@@H]4CCCCN4C(=O)c4csc(-c5ccccc5)n4)ccc3C2=O)C(=O)N1` (stereo partly drawn) [Compound I-72du], the Dmax amounted to 23.6%, the remaining activity at up to 25 µM is 76.4% and the DC50 was > 25 µM.

Regarding `O=C1CCC(N2Cc3cc(OC[C@@H]4CCCCN4C(=O)c4ccccc4OC(F)(F)F)ccc3C2=O)C(=O)N1` (stereo partly drawn) [Compound I-72dv], the Dmax came to 13.3%, the remaining activity at up to 25 µM was 86.7% and the DC50 was > 25 µM.

Regarding `O=C1CCC(N2Cc3cc(OC[C@@H]4CCCCN4C(=O)c4csc(N5CCOCC5)n4)ccc3C2=O)C(=O)N1` (stereo partly drawn) [Compound I-72e], the Dmax came to 17.1%, the remaining activity at up to 25 µM worked out at 82.9% and the DC50 is > 25 µM.

As for `O=C1CCC(N2Cc3cc(OC[C@@H]4CCCCN4C(=O)[C@@H]4CCC(=O)N4Cc4ccccc4)ccc3C2=O)C(=O)N1` (stereo partly drawn) [Compound I-72ed], the Dmax is 4.6%, the remaining activity at up to 25 µM amounted to 95.4% and the DC50 was > 25 µM.

`COc1c(F)cc(C(=O)N2CCCC[C@H]2COc2ccc3c(c2)CN(C2CCC(=O)NC2=O)C3=O)cc1F` (stereo partly drawn) [Compound I-72eg]: the Dmax is 72.1%, the remaining activity at up to 25 µM was 27.9% and the DC50 was 2.25 µM.

`CCc1cc(C(=O)N2CCCC[C@H]2COc2ccc3c(c2)CN(C2CCC(=O)NC2=O)C3=O)on1` (stereo partly drawn) [Compound I-72ek]: the Dmax amounted to 21%, the remaining activity at up to 25 µM came to 79% and the DC50 was > 25 µM.

Consider `O=C1CCC(N2Cc3cc(OC[C@@H]4CCCCN4C(=O)CCC(=O)N4CCOCC4)ccc3C2=O)C(=O)N1` (stereo partly drawn) [Compound I-72eo], for which the Dmax was found to be 4.8%, the remaining activity at up to 25 µM was 95.2% and the DC50 was > 25 µM.

Consider `Cc1cc(-c2onc(C)c2C(=O)N2CCCC[C@H]2COc2ccc3c(c2)CN(C2CCC(=O)NC2=O)C3=O)no1` (stereo partly drawn) [Compound I-72ep], for which the Dmax was 77.8%, the remaining activity at up to 25 µM stood at 22.2% and the DC50 came to 1.35 µM.

As to `CC#CCCOc1ccc(C(=O)N2CCCC[C@H]2COc2ccc3c(c2)CN(C2CCC(=O)NC2=O)C3=O)cc1` (stereo partly drawn) [Compound I-72ew], the Dmax was 54.9%, the remaining activity at up to 25 µM was 45.1% and the DC50 turned out to be 14.6 µM.

As for `CC(C)n1nccc1C(=O)N1CCCC[C@H]1COc1ccc2c(c1)CN(C1CCC(=O)NC1=O)C2=O` (stereo partly drawn) [Compound I-72ez], the Dmax turned out to be 0%, the remaining activity at up to 25 µM is 100% and the DC50 is > 25 µM.

As to `O=C1CCC(N2Cc3cc(OC[C@@H]4CCCCN4C(=O)[C@@H]4CCCCN4C4CC4)ccc3C2=O)C(=O)N1` (stereo partly drawn) [Compound I-72f], the Dmax amounted to 0.9%, the remaining activity at up to 25 µM turned out to be 99.1% and the DC50 is > 25 µM.

Consider `Cc1ccnc(-c2cc(C(=O)N3CCCC[C@H]3COc3ccc4c(c3)CN(C3CCC(=O)NC3=O)C4=O)ccn2)c1` (stereo partly drawn) [Compound I-72fa], for which the Dmax turned out to be 5.1%, the remaining activity at up to 25 µM worked out at 94.9% and the DC50 is > 25 µM.

As to `CC(C)N1CCC(CC(=O)N2CCCC[C@H]2COc2ccc3c(c2)CN(C2CCC(=O)NC2=O)C3=O)CC1` (stereo partly drawn) [Compound I-72fe], the Dmax came to 18.5%, the remaining activity at up to 25 µM amounted to 81.5% and the DC50 was > 25 µM.

As for `O=C1CCC(N2Cc3cc(OC[C@@H]4CCCCN4C(=O)c4cnc(N5CCCCC5)s4)ccc3C2=O)C(=O)N1` (stereo partly drawn) [Compound I-72fi], the Dmax was found to be 70.2%, the remaining activity at up to 25 µM was determined as 29.8% and the DC50 was 2.05 µM.

In the case of `O=C1CCC(N2Cc3cc(OC[C@@H]4CCCCN4C(=O)c4ccc(-c5ccc(F)cc5)cn4)ccc3C2=O)C(=O)N1` (stereo partly drawn) [Compound I-72fj], the Dmax was determined as 63.7%, the remaining activity at up to 25 µM was 36.3% and the DC50 amounted to 3.91 µM.

`O=C1CCC(N2Cc3cc(OC[C@@H]4CCCCN4C(=O)[C@H]4CCOC4)ccc3C2=O)C(=O)N1` (stereo partly drawn) [Compound I-72fn]: the Dmax turned out to be 2.6%, the remaining activity at up to 25 µM came out at 97.4% and the DC50 was > 25 µM.

Take `Cc1nc(C(=O)N2CCCC[C@H]2COc2ccc3c(c2)CN(C2CCC(=O)NC2=O)C3=O)c(C)s1` (stereo partly drawn) [Compound I-72fp]: the Dmax is 9.5%, the remaining activity at up to 25 µM amounted to 90.5% and the DC50 was > 25 µM.

`O=C1CCC(N2Cc3cc(OC[C@@H]4CCCCN4C(=O)c4snnc4-c4ccccc4)ccc3C2=O)C(=O)N1` (stereo partly drawn) [Compound I-72fq]: the Dmax worked out at 0.3%, the remaining activity at up to 25 µM was 99.7% and the DC50 is > 25 µM.

Turning to `O=C1CCC(N2Cc3cc(OC[C@@H]4CCCCN4C(=O)CCCn4cnnc4)ccc3C2=O)C(=O)N1` (stereo partly drawn) [Compound I-72fv], the Dmax came out at 1.1%, the remaining activity at up to 25 µM came to 98.9% and the DC50 is > 25 µM.

The values are drawn from patent US11566022B2, “3-(5-methoxy-1-oxoisoindolin-2-yl)piperidine-2,6-dione derivatives and uses thereof” (NOVARTIS AG, priority 2019, dated 2023).
